Values of other authors as cited in patent US20220143046A1, “COMPOSITION AND METHODS FOR RECTAL DELIVERY OF 4-AAPA AND 5-ASA COMPOUNDS” (9 METERS BIOPHARMA, INC., priority 2019, published 2022).

Conditions: oral formulation; two Phase 1 clinical trials for mild to moderate ulcerative colitis

O=C(O)Cc1ccc(/N=N/c2ccc(O)c(C(=O)O)c2)cc1 [INN-108, 5-(4-carboxymethyl-phenylazo)-2-hydroxybenzoic acid]
systemic absorption: no evidence of systemic absorption
